#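 At the GI50, growth is halved. TGI denotes the concentration required for complete inhibition of growth.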
# Columns and labels:
# Assay in all cases: inhibition of tumour cell growth, NCI panel, 384-well format
# [1] = test system: A498 renal
# [2] = test system: A549 NSCLC
# [3] = test system: ACHN renal
# [4] = test system: BT-549 breast
# [5] = test system: CAKI-1 renal
# [6] = test system: COLO 205 colon
# [7] = test system: DU-145 prostate
# [8] = test system: EKVX NSCLC
# [9] = test system: HCC-2998 colon
# [10] = test system: HCT-116 colon
# [11] = test system: HCT-15 colon
# [12] = test system: HL-60(TB) leukemia
# [13] = test system: HOP-62 NSCLC
# [14] = test system: HOP-92 NSCLC
# [15] = test system: HS 578T breast
# [16] = test system: HT29 colon
# [17] = test system: IGROV1 ovarian
# [18] = test system: KM12 colon
# [19] = test system: LOX IMVI melanoma
# [20] = test system: M14 melanoma
# [21] = test system: MALME-3M melanoma
# [22] = test system: MCF7 breast
# [23] = test system: MDA-MB-231 breast
# [24] = test system: MDA-MB-435 melanoma
# [25] = test system: MDA-MB-468 breast
# [26] = test system: MOLT-4 leukemia
# [27] = test system: NCI-H226 lung
# [28] = test system: NCI-H23 lung
# [29] = test system: NCI-H322M lung
# [30] = test system: NCI-H460 NSCLC
# [31] = test system: NCI-H522 lung
# [32] = test system: NCI/ADR-RES ovarian
# [33] = test system: OVCAR-3 ovarian
# [34] = test system: OVCAR-4 ovarian
# [35] = test system: OVCAR-5 ovarian
# [36] = test system: OVCAR-8 ovarian
# [37] = test system: PC-3 prostate
# [38] = test system: RPMI-8226 leukemia
# [39] = test system: RXF 393 renal
# [40] = test system: SF-268 CNS
# [41] = test system: SF-295 CNS
# [42] = test system: SF-539 CNS
# [43] = test system: SK-MEL-28 melanoma
# [44] = test system: SK-MEL-5 melanoma
# [45] = test system: SK-OV-3 ovarian
# [46] = test system: SN12C renal
# [47] = test system: SNB-19 CNS
# [48] = test system: SNB-75 CNS
# [49] = test system: SR leukemia
# [50] = test system: T-47D breast
# [51] = test system: TK-10 renal
# [52] = test system: U251 glioblastoma
# [53] = test system: UACC-257 melanoma
# [54] = test system: UACC-62 melanoma
smiles,measurement,setting,value
CCc1c[nH]c2ncnc(N3CC[C@](N)(CNC(=O)c4ccc(F)cc4F)C3)c12,GI50,[1],0.136 µM
same,TGI,[1],2.09 µM
same,GI50,[2],10.8 µM
same,TGI,[2],> 100 µM
same,GI50,[3],4.85 µM
same,TGI,[3],> 100 µM
same,GI50,[4],1.27 µM
same,TGI,[4],18.4 µM
same,GI50,[5],5.18 µM
same,TGI,[5],> 100 µM
same,GI50,[6],4.95 µM
same,TGI,[6],28.6 µM
same,GI50,[7],6.69 µM
same,TGI,[7],> 100 µM
same,GI50,[8],7.28 µM
same,TGI,[8],46.2 µM
same,GI50,[9],3.13 µM
same,TGI,[9],88 µM
same,GI50,[10],6.21 µM
same,TGI,[10],> 100 µM
same,GI50,[11],5.47 µM
same,TGI,[11],> 100 µM
same,GI50,[12],10.4 µM
same,TGI,[12],23.5 µM
same,GI50,[13],6.34 µM
same,TGI,[13],82.3 µM
same,GI50,[14],29.6 µM
same,TGI,[14],> 100 µM
same,GI50,[15],2.53 µM
same,TGI,[15],95.3 µM
same,GI50,[16],3.98 µM
same,TGI,[16],> 100 µM
same,GI50,[17],0.149 µM
same,TGI,[17],1.71 µM
same,GI50,[18],0.959 µM
same,TGI,[18],> 100 µM
same,GI50,[19],18.8 µM
same,TGI,[19],> 100 µM
same,GI50,[20],14.4 µM
same,TGI,[20],> 100 µM
same,GI50,[21],8.62 µM
same,TGI,[21],28.6 µM
same,GI50,[22],0.375 µM
same,TGI,[22],> 100 µM
same,GI50,[23],68.8 µM
same,TGI,[23],> 100 µM
same,GI50,[24],15.4 µM
same,TGI,[24],73.4 µM
same,GI50,[25],0.454 µM
same,TGI,[25],18.9 µM
same,GI50,[26],0.237 µM
same,TGI,[26],1.76 µM
same,GI50,[27],9.86 µM
same,TGI,[27],> 100 µM
same,GI50,[28],13.8 µM
same,TGI,[28],> 100 µM
same,GI50,[29],7.12 µM
same,TGI,[29],> 100 µM
same,GI50,[30],0.536 µM
same,TGI,[30],20.2 µM
same,GI50,[31],11 µM
same,TGI,[31],35.8 µM
same,GI50,[32],12.3 µM
same,TGI,[32],> 100 µM
same,GI50,[33],8.07 µM
same,TGI,[33],> 100 µM
same,GI50,[34],32 µM
same,TGI,[34],> 100 µM
same,GI50,[35],4.4 µM
same,TGI,[35],55.8 µM
same,GI50,[36],15 µM
same,TGI,[36],> 100 µM
same,GI50,[37],0.446 µM
same,TGI,[37],21.8 µM
same,GI50,[38],3.38 µM
same,TGI,[38],30.2 µM
same,GI50,[39],3.34 µM
same,TGI,[39],> 100 µM
same,GI50,[40],> 100 µM
same,TGI,[40],> 100 µM
same,GI50,[41],1.95 µM
same,TGI,[41],> 100 µM
same,GI50,[42],0.442 µM
same,TGI,[42],> 100 µM
same,GI50,[43],9.04 µM
same,TGI,[43],> 100 µM
same,GI50,[44],12.9 µM
same,TGI,[44],28.9 µM
same,GI50,[45],0.892 µM
same,TGI,[45],> 100 µM
same,GI50,[46],7.5 µM
same,TGI,[46],> 100 µM
same,GI50,[47],3.49 µM
same,TGI,[47],> 100 µM
same,GI50,[48],0.626 µM
same,TGI,[48],> 100 µM
same,GI50,[49],0.0603 µM
same,TGI,[49],1.98 µM
same,GI50,[50],0.343 µM
same,TGI,[50],> 100 µM
same,GI50,[51],1.26 µM
same,TGI,[51],45.3 µM
same,GI50,[52],2.79 µM
same,TGI,[52],> 100 µM
same,GI50,[53],7.7 µM
same,TGI,[53],31.1 µM
same,GI50,[54],4.26 µM
same,TGI,[54],25.1 µM
